Data on four compounds can be found in patent US8697098B2, “Polymer conjugated protein micelles” (South Dakota State University, priority 2011, dated 2014).

The conditions of data set [1]: cited from earlier work.
The conditions of data set [2]: cited from earlier work. This is another data set of the same source.
The subject of data set [3] is NCl/ADR-RES drug resistant human ovarian cancer cells. Put plainly: In vitro cytotoxicity, MTT assay. Format: cell-based.
Procedure: On the fifth day cytotoxicity analysis was performed using an MTT assay. Data points represent average±SE (n=4).
On day 5 cytotoxicity analysis was measured using an MTT assay. Data points represent average±SE (n=4).
The cells were washed twice with ice cold phosphate buffer and replaced with fresh media. […] On day 5 cytotoxicity analysis was performed using an MTT assay.
On the fifth day cytotoxicity analysis was performed using the MTT assay.
The subject of data set [4] is MCF-7 human breast cancer cells. Put plainly: In vitro cytotoxicity, MTT assay. The conditions noted are these: MCF7, 120 h, doxorubicin 15.62 nM to 1000 nM, MTT on day 5. Format: cell-based. The procedure:
[…]. On day 5 cytotoxicity analysis was performed using an MTT assay. Data points represents average±SE (n=4). […].
The cells were washed twice with ice cold phosphate buffer and replaced with fresh media. Media was replaced for every 48 hours. At day 5, cytotoxicity analysis was performed using the MTT assay.

Data set [5] deals with JC mouse breast cancer cells. Put plainly: In vivo biodistribution in allograft breast tumor mouse model. The following applies: i.v.; 3 hours after administration.
Procedure: The tumor model was developed by subcutaneous injection of JC mouse breast cancer cells. […] Animals were sacrificed 3 hours after treatment administration. Tumor and organs were collected. Doxorubicin concentration in tumors and organs were determined using a fluorescence based isocratic HPLC method. […] Female nude mice (Charles River Laboratories, Wilmington, Mass.) were used in the study. JC mouse breast cancer cells (1×10^7 cells) were suspended in PBS and injected subcutaneously. […] After 3 hours, the mice were sacrificed and organs (liver, heart, lungs, spleen, brain and tumor) were collected and homogenized in 2 mL deionized water using a tissue homogenizer. After addition of 100 ng of daunorubicin (internal standard), tissue homogenates were lyophilized.
Dry tissues were weighed and extracted with 5 mL of methanol/chloroform mixture (65:35) using a shaker for 5 hours in the dark at room temperature. The extract was centrifuged at 13,000 rpm for 10 minutes at 4° C. The supernatant was evaporated under nitrogen gas and reconstituted in methanol/acetonitrile (50:50).
The conditions of data set [6]: comparison surfactant / block copolymers; cited from earlier work.

In brackets after ≈: the same amount, converted by molar mass. Like-named read-outs stand apart in the source and are kept apart here.

Consider `COc1cc(/C=C/C(=O)/C=C(O)/C=C/c2ccc(O)c(OC)c2)ccc1O` [Curcumin], for which the “solubility in water” value is “practically insoluble in water” in data set [1] (free compound) and 11 ng/mL (≈ 0.0299 µM) in data set [1] (free drug). For the same compound, the “Log P” value in data set [2] (Table 3, cargo compound itself) is reported as 2.5; in data set [2] it was 2.5. 104 nM corresponded to half-maximal inhibition in data set [3] (96 h) (IC50).

For `COc1cccc2c1C(=O)c1c(O)c3c(c(O)c1C2=O)C[C@@](O)(C(=O)CO)C[C@@H]3O[C@H]1C[C@H](N)[C@H](O)[C@H](C)O1` [Doxorubicin], the IC50 in data set [4] amounted to 148 nM; in data set [3] (120 h, doxorubicin 31.25 nM to 1000 nM, MTT on day 5, read-out: IC50) it was 126 nM. The “solubility in water” value in data set [1] (free compound) is recorded as “practically insoluble in water”; in data set [1] (free drug), 15 ng/mL (≈ 0.0276 µM). The “doxorubicin accumulation in tumor” value in data set [5] is on record as “no drug accumulation”.

For the compound `CCN(CC)c1ccc2nc3c4ccccc4c(=O)cc-3oc2c1` [Nile red], the “solubility in water” value in data set [1] (free compound) was “practically insoluble in water”. For the same compound, the “Log P” value in data set [2] (Table 3, cargo compound itself) is 5.

Consider `CCCCCCCCCCCCOS(=O)(=O)[O-].[Na+]` [sodium dodecyl sulfate], for which the “critical micellar concentration (CMC)” value in data set [6] is “about 2.304 g/L”.
